The source made the active and inactive calls. The calls are words filed in the database; no cut-off is given here.
Key:
[1] = system: Right cardiac atrium; assay: Negative ionotropic activity in electrically-paced Cavia porcellus (guinea pig) right atrium measured after 60 min by isometric transducer analysis in presence of AM 251; format: functional, tissue-based
[2] = system: Right cardiac atrium; assay: Negative ionotropic activity in electrically-paced Cavia porcellus (guinea pig) right atrium measured after 60 min by isometric transducer analysis in presence of AM 630; format: functional, tissue-based
[3] = target: T1, Muscarinic acetylcholine receptor M1 (Homo sapiens) (UniProt P11229); assay: Allosteric modulation of Homo sapiens (human) recombinant muscarinic M1 receptor expressed in CHO cells assessed as inhibition of carbachol-induced [35S]GTPgammaS binding; format: functional, cell-based
T1 sequence (whole entry): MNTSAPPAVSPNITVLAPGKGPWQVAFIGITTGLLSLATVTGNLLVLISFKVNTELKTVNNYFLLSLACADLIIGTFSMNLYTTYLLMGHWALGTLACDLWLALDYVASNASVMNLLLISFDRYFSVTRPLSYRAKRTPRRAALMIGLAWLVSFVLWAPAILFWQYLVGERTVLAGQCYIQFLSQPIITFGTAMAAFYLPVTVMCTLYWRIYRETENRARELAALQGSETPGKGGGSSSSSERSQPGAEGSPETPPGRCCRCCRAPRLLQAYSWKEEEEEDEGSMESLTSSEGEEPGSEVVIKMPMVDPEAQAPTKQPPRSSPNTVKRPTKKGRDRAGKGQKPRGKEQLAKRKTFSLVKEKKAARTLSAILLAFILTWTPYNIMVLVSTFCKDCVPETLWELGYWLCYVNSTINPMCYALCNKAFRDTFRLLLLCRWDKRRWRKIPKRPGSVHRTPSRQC

[4] = system: Left cardiac atrium; assay: Negative ionotropic activity in electrically-paced Cavia porcellus (guinea pig) left atrium measured after 60 min by isometric transducer analysis in presence of naloxane; format: functional, tissue-based
[5] = target: T2, Muscarinic acetylcholine receptor M5 (Homo sapiens) (UniProt P08912); assay: Binding affinity to Homo sapiens (human) recombinant muscarinic M5 receptor expressed in CHO cells assessed as [35S]GTPgammaS binding; format: functional, cell-based
T2 sequence (whole entry): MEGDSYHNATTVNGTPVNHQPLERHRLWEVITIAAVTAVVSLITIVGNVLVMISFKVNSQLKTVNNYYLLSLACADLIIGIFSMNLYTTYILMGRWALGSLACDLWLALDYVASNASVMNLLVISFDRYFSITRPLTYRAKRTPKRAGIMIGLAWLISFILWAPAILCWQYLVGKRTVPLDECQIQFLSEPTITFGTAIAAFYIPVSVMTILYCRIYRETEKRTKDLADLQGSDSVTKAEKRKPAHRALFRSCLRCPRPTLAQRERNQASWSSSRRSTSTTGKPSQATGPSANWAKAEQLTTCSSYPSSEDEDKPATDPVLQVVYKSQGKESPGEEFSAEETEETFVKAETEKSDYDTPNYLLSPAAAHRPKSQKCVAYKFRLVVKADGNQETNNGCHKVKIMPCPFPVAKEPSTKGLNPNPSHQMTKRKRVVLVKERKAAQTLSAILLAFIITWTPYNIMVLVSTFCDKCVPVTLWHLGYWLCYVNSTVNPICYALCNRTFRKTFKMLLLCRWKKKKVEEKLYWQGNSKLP

[6] = system: Right cardiac atrium; assay: Negative ionotropic activity in electrically-paced Cavia porcellus (guinea pig) right atrium measured after 60 min by isometric transducer analysis in presence of naloxane; format: functional, tissue-based
[7] = system: Left cardiac atrium; assay: Negative ionotropic activity in electrically-paced Cavia porcellus (guinea pig) left atrium measured after 60 min by isometric transducer analysis in presence of benextramine; format: functional, tissue-based
[8] = system: Left cardiac atrium; assay: Negative ionotropic activity in electrically-paced Cavia porcellus (guinea pig) left atrium measured after 60 min by isometric transducer analysis in presence of benzalkonium; format: functional, tissue-based
[9] = target: T3, Muscarinic acetylcholine receptor M4 (Homo sapiens) (UniProt P08173); assay: Binding affinity to Homo sapiens (human) recombinant muscarinic M4 receptor expressed in CHO cells assessed as [35S]GTPgammaS binding; format: functional, cell-based
T3 sequence (whole entry): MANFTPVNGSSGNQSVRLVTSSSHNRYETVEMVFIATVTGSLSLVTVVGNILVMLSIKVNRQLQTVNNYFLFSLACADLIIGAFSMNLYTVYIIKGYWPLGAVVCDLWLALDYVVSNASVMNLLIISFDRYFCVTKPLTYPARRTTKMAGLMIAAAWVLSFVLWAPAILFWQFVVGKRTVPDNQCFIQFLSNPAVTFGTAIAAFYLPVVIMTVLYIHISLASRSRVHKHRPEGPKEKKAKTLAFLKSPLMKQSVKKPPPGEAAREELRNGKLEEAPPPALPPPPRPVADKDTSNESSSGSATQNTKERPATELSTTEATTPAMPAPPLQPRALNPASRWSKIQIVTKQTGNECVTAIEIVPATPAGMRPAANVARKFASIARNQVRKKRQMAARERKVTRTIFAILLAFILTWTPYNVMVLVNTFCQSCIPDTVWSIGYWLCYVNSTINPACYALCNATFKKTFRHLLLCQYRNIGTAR

[10] = system: Left cardiac atrium; assay: Negative ionotropic activity in electrically-paced Cavia porcellus (guinea pig) left atrium measured after 60 min by isometric transducer analysis in presence of prazosin; format: functional, tissue-based
[11] = system: Left cardiac atrium; assay: Negative ionotropic activity in electrically-paced Cavia porcellus (guinea pig) left atrium measured after 60 min by isometric transducer analysis in absence of benextramine/4-DAMP mustard relative to N-dodecyl lysine amide; format: functional
[12] = system: Left cardiac atrium; assay: Reversible negative ionotropic activity in electrically-paced Cavia porcellus (guinea pig) left atrium incubated for 30 min followed by compound-washout measured after 3 hr by isometric transducer analysis; format: functional, tissue-based
[13] = system: Left cardiac atrium; assay: Negative ionotropic activity in electrically-paced Cavia porcellus (guinea pig) left atrium measured after 60 min by isometric transducer analysis in presence of pimozide; format: functional, tissue-based
[14] = system: Right cardiac atrium; assay: Reversible negative ionotropic activity in electrically-paced Cavia porcellus (guinea pig) right atrium incubated for 30 min followed by compound-washout measured after 3 hr by isometric transducer analysis; format: functional, tissue-based
[15] = system: Right cardiac atrium; assay: Negative ionotropic activity in electrically-paced Cavia porcellus (guinea pig) right atrium measured after 60 min by isometric transducer analysis in presence of DPCPX; format: functional, tissue-based
[16] = target: Muscarinic acetylcholine receptor M3 (Homo sapiens) (UniProt P20309); assay: Allosteric modulation of Homo sapiens (human) recombinant muscarinic M3 receptor expressed in CHO cells assessed as inhibition of carbachol-induced [35S]GTPgammaS binding; format: functional, cell-based
Sequence of Muscarinic acetylcholine receptor M3 (Homo sapiens) (P20309 whole entry, looked up): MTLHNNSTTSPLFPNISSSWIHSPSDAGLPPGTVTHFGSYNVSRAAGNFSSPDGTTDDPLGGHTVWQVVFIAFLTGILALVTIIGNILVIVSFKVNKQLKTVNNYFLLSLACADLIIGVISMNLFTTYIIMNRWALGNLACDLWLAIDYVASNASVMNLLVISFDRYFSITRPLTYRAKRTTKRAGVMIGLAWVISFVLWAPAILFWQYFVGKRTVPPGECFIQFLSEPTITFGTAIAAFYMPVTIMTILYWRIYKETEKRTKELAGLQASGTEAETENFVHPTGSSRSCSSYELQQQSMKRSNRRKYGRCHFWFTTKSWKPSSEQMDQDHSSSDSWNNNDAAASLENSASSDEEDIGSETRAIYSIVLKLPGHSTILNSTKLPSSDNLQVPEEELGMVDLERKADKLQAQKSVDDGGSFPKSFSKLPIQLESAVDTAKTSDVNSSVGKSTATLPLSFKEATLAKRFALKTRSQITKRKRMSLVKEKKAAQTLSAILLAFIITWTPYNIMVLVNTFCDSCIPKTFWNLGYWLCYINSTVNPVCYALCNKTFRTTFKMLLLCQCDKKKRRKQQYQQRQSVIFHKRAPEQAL

| SMILES | Activity [1] | Activity [2] | Activity [3] | Activity [4] | Activity [5] | Activity [6] | Activity [7] | Activity [8] | Activity [9] | Activity [10] | Efficacy [11] [%] | Activity [12] | Activity [13] | Activity [14] | Activity [15] | Activity [16] |
| --- | --- | --- | --- | --- | --- | --- | --- | --- | --- | --- | --- | --- | --- | --- | --- | --- |
| COc1ccccc1CN1CCC(C2CCN(C(=O)CCCCCCC(=O)N3CCC(C4CCN(Cc5ccccc5OC)CC4)CC3)CC2)CC1 [PIPERTRAMINE AMIDE] | Active | Active | Active | Active | inactive | Active | Active | inactive | inactive | Active | 90 | inactive | Active | inactive | Active | Active |
| COc1ccccc1CN1CCC(C2CCN(CCCCCCCCN3CCC(C4CCN(Cc5ccccc5OC)CC4)CC3)CC2)CC1 [PIPERTRAMINE] | Active | Active | Active | Active | inactive | Active | Active | inactive | inactive | Active | 96 | inactive | Active | inactive | Active | Active |

— ChEMBL document CHEMBL3044753, “Polyamines May Modulate Both G Protein-Coupled Receptors and G Proteins” (Med Chem Res, 2004)
